The values below come from patent US20220135526A1, “QUATERNARY AMMONIUM SALT COMPOUND, PREPARATION METHOD THEREFOR AND USE THEREOF” (WEST CHINA HOSPITAL, SICHUAN UNIVERSITY, priority 2019, published 2022).

Where a name gives a salt, the structure may show the parent alone.

The subject of one assay is rat's sciatic nerve. The assay is described as follows: Local anesthetic effect after injection near the rat sciatic nerve (von Frey stimulation; Postural Extensor Thrust for motor function). The settings on record: SD rats, 0.5 mL near sciatic nerve, compounds 20 mmol/mL; for Duration of motor block: Postural Extensor Thrust; for Duration of motor block / Duration of sensory block: levobupivacaine 0.75%, lidocaine 2%; for Local anesthesia onset time: levobupivacaine 0.75% (22 mmol/L), lidocaine 2% (74 mmol/L); for Duration of sensory block: von Frey. The class given is in vivo. As to the method: Dosage: for lidocaine group, lidocaine was formulated with distilled water into a solution at the concentration of 2% (74 mmol/L); for levobupivacaine group, levobupivacaine was formulated with distilled water into a solution at the concentration of 0.75% (22 mmol/L); the compound of the present invention was formulated with distilled water into a solution at the concentration of […].
The injection volume for each rat was 0.5 mL, which was guided by a nerve locator and injected near the rat's sciatic nerve. Using von Frey stimulator, the rats were stimulated the soles of the feet in the injected side, to observe the effect of local anesthesia. Meanwhile, Postural Extensor Thrust (PET) was used to evaluate the motor function of the rat: the rat was lifted vertically and the hindlimb in the injected side pedaled on the platform of the electronic balance. […] When the limb was completely paralyzed, the reading was the limb's own weight, about 20 g. If the measured value was more than half of the difference between the baseline and the limb weight, the motor function was regarded as recovery, and if the value was […], the motor function was regarded as loss.

The next assay relates to back skin of SD rat. The assay is described as follows: Local anesthetic effect by subcutaneous infiltration (back skin, Von Frey fiber 100 g). The assay is classed as in vivo. The settings on record: SD rats, 0.5 mL subcutaneous in saline; compounds 6 mmol/L, controls 0.75% (22 mmol/L) and 2% (74 mmol/L). As for the experimental part: After the back of SD rat weighing 250-300 g (half female and half male) was shaved and disinfected, a circle with a diameter of about 1.5 cm was drawn on the side of the exposed back, and the circle is divided into 6 equal parts. […] Among the Von Frey fiber yarns, the one with a strength of 100 g was bound to the needle for local skin stimulation. One minute After the drug was injected, the above method was used to stimulate in 6 divisions. […] If back skin contraction was observed, the local anesthetic effect was considered as loss. […] Each compound was tested with 10 rats.

For assay [1] the following is noted: QX314 with the addition of surfactants (Kohane, PNAS 2010); cited from earlier work.

Take `CCCCC[N+](CCCCC)(CCCN1CCCCC1C(=O)Nc1c(C)cccc1C)CC(=O)Nc1c(C)cccc1C.Cl.[Br-]` (centres unmarked) [Example 10 product]: in the assay with rat's sciatic nerve, the “Duration of motor block” value worked out at 19 h, the “Local anesthesia onset time” value was determined as 3 min and the “Duration of sensory block” value was 25 h. Further, in the assay on back skin of SD rat, the “Duration of local anesthesia (median)” value was 56 h and the “Local anesthesia onset time (median)” value came out at 1 min.
The matching figures for `CCCCC[N+](CCCCCCN1CCC1C(=O)Nc1c(C)cccc1C)(CCSCC)CC(=O)Nc1c(C)cccc1C` (centres unmarked) [Example 63 product]: 14 h, 3 min, 64 h, 79 h and 1 min.
Take `CCCCCCCC[N+](CCCCCC(=O)O)(CCCOCCCN1CCCCC1C(=O)Nc1c(C)cccc1C)CC(=O)Nc1c(C)cccc1C` (centres unmarked) [Example 39 product]: in the assay on rat's sciatic nerve, the “Duration of motor block” value was determined as 19 h, the “Local anesthesia onset time” value was 3 min and the “Duration of sensory block” value turned out to be 61 h. In addition, in the assay on back skin of SD rat, the “Duration of local anesthesia (median)” value is 89 h and the “Local anesthesia onset time (median)” value is 2 min.
The matching figures for `CCCCC[N+](CO)(CCCCCCN1CCCCC1C(=O)Nc1c(C)cccc1C)CC(=O)Nc1c(C)cccc1C.[Br-]` (centres unmarked) [Example 15 product]: 16 h, 5 min, 44 h, 73 h and 4 min.
The matching figures for `CCCCC[N+](CCCCCO)(CCCCCCN1CCCCC1C(=O)Nc1c(C)cccc1C)CC(=O)Nc1c(C)cccc1C.[Br-]` (centres unmarked) [Example 12 product]: 11 h, 5 min, 42 h, 66 h and 3 min.
The corresponding values for `Cc1cccc(C)c1NC(=O)C[N+]1(CCCSCCCN2CCCCC2C(=O)Nc2c(C)cccc2C)CC(C)OC(C)C1` (centres unmarked) [Example 58 product] are 16 h, 3 min, 57 h, 71 h and 2 min.
`CCCCCCCC[N+](CCCCCCC)(CCCN1CCCCC1C(=O)Nc1c(C)cccc1C)CC(=O)Nc1c(C)cccc1C` (centres unmarked) [Example 74 product]: in the assay with rat's sciatic nerve, the “Duration of motor block” value is recorded as 17 h, the “Local anesthesia onset time” value amounted to 1 min and the “Duration of sensory block” value is reported as 72 h. Also, in the assay on back skin of SD rat, the “Duration of local anesthesia (median)” value is reported as 56 h and the “Local anesthesia onset time (median)” value was determined as 1 min.
As to `CC[N+](CC)(CC)CC(=O)Nc1c(C)cccc1C` [QX314], in assay [1], the “duration of local anesthesia” value is on record as “more than 8 hours”.
Regarding `CCCCN1CCCC[C@H]1C(=O)Nc1c(C)cccc1C` [0.75% levobupivacaine hydrochloride, levobupivacaine hydrochloride, reference compound], in the assay with rat's sciatic nerve, the “Duration of motor block” value stood at 2.5 h, the “Local anesthesia onset time” value stood at 1 min and the “Duration of sensory block” value is 2.5 h. Moreover, in the assay on back skin of SD rat, the “Duration of local anesthesia (median)” value is 7 h and the “Local anesthesia onset time (median)” value was 1 min.
